pEC50: −log10 of the molar value.
Tests used:
4-hydroxynonenol (4-HNE) = assay: 4-hydroxynonenol expression in substantia nigra, Western blot and immunostaining; assay type: in vivo, C57BL/6 mice
Description: For checking inflammatory and oxidative stress markers, mice were gavaged diapocynin (300 mg/kg dose) 1 day before MPTP treatment (pre-treatment) and continued for another 4 days of co-treatment with MPTP. In the sub-acute MPTP regimen, MPTP (25 mg/kg) was injected intraperitoneally once per day from day 2 to day 7. Control mice received saline at the same dosage.
Four days after MPTP treatment, mice were perfused with 4% paraformaldehyde (PFA) and post-fixed with PFA and 30% sucrose, respectively. Next, fixed brains were cut into 30 μm sections and kept in 30% sucrose-ethylene glycol solutions at −20° C. On the day of staining, sections were rinsed with phosphate-buffered saline (PBS) and incubated with different primary antibodies, including anti-IBA-1 (DAKO, Carpinteria, Calif.), anti-GFAP (Millipore, Billerica, Mass.), anti-iNOS (Santa Cruz Biotechnology, Santa Cruz, Calif.), anti-3NT (Millipore), anti-4HNE (R&D Systems, Minneapolis, Minn.) and anti-gp91phox (Santa Cruz Biotechnology) for overnight at 4° C. Appropriate secondary antibodies (Alexa Fluor 488, 594, or 555 from Invitrogen, Carlsbad, Calif.) were used followed by incubation with 10 μg/ml Hoechst 33342 for 5 min at room temperature to stain the nucleus. Sections were viewed under a Nikon inverted fluorescence microscope (model TE-2000U; Nikon, Tokyo, Japan). […]

BV2 microglial cells = assay: LPS-induced iNOS activation (nitrite, Griess reagent) in BV2 microglial cells; assay type: cell-based, mouse; settings: 30 min pretreatment
Description: Two cell models of neuroinflammation were used to evaluate the anti-neuroinflammatory property of diapocynin including the mouse BV2 microglial cell line, as well as primary microglia isolated from mouse brains. BV2 cells were obtained from the American Tissue Culture Collection. BV2 cells were maintained in RPMI containing 10% FBS and 100 units of pen/strep at 37° C. and 5% CO2. For treatments, RPMI containing 2% FBS and 100 units of pen/strep was used.
Inducible nitric oxide synthase (iNOS or NOS2) activation was assessed by measuring nitrite levels using Griess reagent in a 96-well format (70-72). Each well contained 40,000 BV2 cells or 100,000 primary microglia. BV2 cells were cultured in 150 μl of RPMI containing 10% FBS and pen/strep, and the primary microglia were cultured in DMEM-F12 containing 10% FBS, pen/strep, sodium pyruvate (S/P), Q, and NEAAs. One day after culturing, cells were replaced with 150 μl of their respective complete media containing only 2% FBS. Both cell types were pretreated with diapocynin (10 μM) and apocynin (100 μM) for 30 min before LPS stimulation (1 μg/ml LPS for BV2 cells and 100 ng/ml for primary microglia), and the plates were incubated at 37° C. After 24 hr at 37° C., 100 μl of supernatant were removed and placed into a new 96 well plate, to which 100 μl of Griess reagent were added. The plate was shaken on a plate shaker for 10 min before being read in a plate reader at 540 nm.
This example generally followed the cell culture, treatment, and analysis steps of Example 4 above.
Diapocynin diacetate (diapodiacetate or diapo diace) suppresses LPS-induced NOS-2 in BV2 microglial cells (FIG. 21). BV-2 cells were plated in 96 well plates, 40,000 cells per well, and treated in 150 μl of RPMI containing 2% heat inactivated FBS and penicillin/streptomycin. Diapo diacetate was used on the cells as a 30 min pretreatment, then LPS (1 μg/ml) was added. All treatments were allowed to incubate at 37° C. for 24 hr, starting from the addition of LPS. One hundred microliter aliquots of supernatant from each well were combined with 100 μl of Griess reagent (Sigma) in a 96-well plate and allowed to shake for 10 minutes before being read on the plate reader. The percent nitrite level for the treatments compared to the control was graphed.

pEC50 (BV2 microglial cells; Mus musculus, BV-2 cells, LPS 1 μg/ml, Griess reagent, non-linear regression of dose response curve, read-out: EC50, block of LPS-induced iNOS activation (nitrite level)): 5.11
SMILES: COc1cc(C(C)=O)cc(-c2cc(C(C)=O)cc(OC)c2O)c1O [diapocynin]
MPTP-induced increase in expression of 4-HNE in substantia nigra (4-hydroxynonenol (4-HNE); diapocynin 300 mg/kg gavage, MPTP 25 mg/kg i.p., Western blot and immunostaining): attenuated
colocalized cells of TH and 4-HNE in substantia nigra (4-hydroxynonenol (4-HNE); double-label immunostaining, MPTP- and diapocynin-treated mice): very few colocalized cells
attenuating LPS-induced iNOS activation, compared with apocynin 100 μM (BV2 microglial cells; BV2 cells, diapocynin 10 μM, LPS 1 μg/ml 24 hr): just as effective

— patent US8962600B2, “Neuroprotective compounds and their use” (The Medical College of Wisconsin, Inc., priority 2009, dated 2015)
